We go through eleven compounds from publication PMC12631721, “Preclinical Screening Platform Identifies Azatadine‐Dimaleate as a Potent Repurposed Therapeutic Against SARS‐CoV‐2 Infection” (Journal of Medical Virology, 2025).

Values joined by “and” are separate entries in the source; they are usually repeats but may differ in a detail not shown here. Equal entries are not always repeated. “Also recorded” adds a separate entry of the source. Where two headings read alike, the source gives them in different places.

The inhibition is the change of the read-out against control, counted positive when it falls. By EC50 is commonly meant the concentration needed to bring the measured effect to its halfway point. The term IC50 denotes the concentration that gives 50% inhibition.

The subject of data set [1] is SARS‐CoV‐2. Nature of the data set: CPE-based high-throughput screen (CellTox Green) in Vero cells. In kind it is cell-based.
In data set [2] the test system is SARS‐CoV‐2. Nature of the data set: CPE-based high-throughput screen (CellTox Green) in Calu‐3 cells. In kind it is cell-based.
Data set [3] deals with SARS‐CoV‐2. Further details: method as in PMID 37100830. The note with it: clinical trial by Klussmann and colleagues; cited from earlier work.
Data set [4] relates to SARS‐CoV‐2. Nature of the data set: microbe, parasite or virus in culture. The data set is classed as cell-based.
Data set [5] concerns SARS‐CoV‐2. In kind it is cell-based. Particulars: Calu‐3 pretreated 24 h before infection, MOI = 0.1, plaque assay.
Data set [6] has as its system SARS‐CoV‐2. Nature of the data set: Viral NSP12 RNA by RT‐qPCR in Calu‐3 cells. In kind it is cell-based. Particulars: Calu‐3, RT‐qPCR. On the procedure:
(A) Cell viability assessment in uninfected Calu‐3 cells treated with DMSO control, Azatadine‐Dimaleate (25 µM), Remdesivir (1 µM), or the combination (Remdesivir 1 µM + Azatadine 25 µM) for 72 h. […] (B) Release of infectious virus was quantified by plaque assay. Calu‐3 cells were pretreated with Azatadine‐Dimaleate (5 & 25 µM) or Remdesivir (1 µM) 24 h before infection with SARS‐CoV‐2 PHE (MOI = 0.1). (C) Levels of viral NSP12 RNA was measured by RT‐qPCR following treatment with Azatadine‐Dimaleate at (5 & 25 µM) or Remdesivir (1 µM) 24 h before infection with SARS‐CoV‐2 (PHE MOI = 0.1). Data bars represent mean ± SEM of n = 3 independent experiments. Statistical analysis by one‐way ANOVA, ***p ≤ 0.001 vs DMSO control. […] DMSO alone was used as a negative control. At 72 hpi viral titres were determined by plaque assay. Data points represent an average of 3 separate repeat experiments ±SEM.
For RNA extraction, cultures were incubated with 400 µL of Lysis/Binding buffer (High Pure Isolation Kit; Roche) for 5 min at room temperature. […] RNA was quantified by spectrophotometry and 1 µg was transcribed into cDNA using The High‐Capacity cDNA Reverse Transcription Kit (Applied Biosystems, Thermo Fisher Scientific) in 0.2 mL PCR reaction tubes (Eppendorf). […] Ready‐made catalogue assays for a set of primers and probes (FAM labelled) (Thermofisher) specific for human genes involved in the innate immune response to SARS‐COV‐2 such as: IFNL1 (Assay ID: Hs00601677 g1, Cat. No:433118) IFNB (Assay ID:Hs01077958_s1, Cat. No. 4331182), ISG15 (Assay ID: Hs01921425 s1, catalogue no:4331182), IFIT1 (Hs03027069_s1, Cat no. 4331182), IL6 (Hs00174131_m1, Cat no. 4331182) and CXCL8/IL8 (Bt03211906_m1, Cat no. 4331182) were selected for analyses.
(§1) When performing qPCR the Roche probe mixes for the detection of TBP (Cat. No. 05189284001) and GAPDH (Assay ID: Hs02786624_g1, Cat. No:4331182) were used as references. The LightCycler® 480 Probes Master mix was used following the manufacturer's protocol to quantify the mRNA expression levels for all genes of interest. […]
For orientation: Real-time PCR tracks product formation cycle by cycle.

Data set [7] concerns SARS‐CoV‐2. Nature of the data set: microbe, parasite or virus in culture. The data set is classed as cell-based. The note with it: for Improvement in potency in combination vs alone: Calu‐3, ratio of EC50 alone to EC50 in combination; for EC50: Severe acute respiratory syndrome coronavirus 2, Calu‐3, pretreated 24 h, PHE MOI = 0.1, 72 hpi, viral titres by plaque assay, read-out: EC50, drug alone.

In data set [8] the test system is SARS‐CoV‐2. In kind it is cell-based. The note with it: WD‐PBECs; for Reduction in viral titers compared to DMSO (significance): Remdesivir 1 µM, Azatadine‐Dimaleate 25 µM, or combination 0.4 µM + 10 µM, 48, 72, 96 hpi.
The next data set concerns SARS‐CoV‐2 LIV strain. The data set is classed as in vivo, K18‐hACE2 mice. The note with it: for Mean weight loss: Azatadine‐Dimaleate 10 mg/kg i.p. daily, remdesivir (as GS‐441524) 25 mg/kg daily, vehicle 12%; for Histopathology score: single animal shown in Fig. S5, 4 dpi, vehicle treated animal score 4.
The subject of a further data set is Calu‐3 cells. Nature of the data set: Cell viability / cytotoxicity in uninfected Calu‐3 cells. Particulars: 72 h, Azatadine‐Dimaleate 25 µM, Remdesivir 1 µM, or combination (1 µM + 25 µM).
The subject of data set [9] is IFNL1, IFNB, IFIT1, ISG15, IL6, CXCL8/IL8. As to the kind of experiment: Innate immune response gene expression by RT‐qPCR in infected WD‐PBECs. The data set is classed as cell-based, human. Particulars: 96 hpi, treatment from 24 hpi. The protocol: Figure 5 Azatadine‐Dimaleate modulates innate immune responses in WD‐PBEC cultures. RNA samples were harvested at 96 hpi from each condition in duplicate from WD‐PBECs and a panel of selected innate immune genes (IFNL1, IFNB, IFIT1, ISG15, IL‐6, CXCL8/IL8), were quantified using RT‐qPCR assay. The relative ratios for each gene were calculated in reference to a house keeping gene GAPDH using light cycler 96 software 1.1. The data value plotted for each donor in each condition is an average of 2 biological duplicate Transwells and four technical replicates. Where possible, statistical significance was determined using unpaired Student t‐test between DMSO control and individual treatments (*p ≤ 0.05, **p ≤ 0.01).
For RNA extraction, cultures were incubated with 400 µL of Lysis/Binding buffer (High Pure Isolation Kit; Roche) for 5 min at room temperature. […] RNA was quantified by spectrophotometry and 1 µg was transcribed into cDNA using The High‐Capacity cDNA Reverse Transcription Kit (Applied Biosystems, Thermo Fisher Scientific) in 0.2 mL PCR reaction tubes (Eppendorf). […]
as §1

The subject of data set [10] is SARS‐CoV‐2. Further details: method as in PMID 32366720. Particulars: Vero cells; cited from earlier work.
Where [11] appears, read: Severe acute respiratory syndrome coronavirus 2, Vero cells, 5 µM, drug 24 h before infection, MOI = 0.1, 72 hpi.
The mark [12] stands for this setting: Severe acute respiratory syndrome coronavirus 2, Calu‐3 cells, 5 µM, drug 24 h before infection, MOI = 0.1, 72 hpi.
Setting [13] is: Severe acute respiratory syndrome coronavirus 2, Calu‐3 cells, PHE MOI = 0.1, 72 hpi, 7 serial 1 in 2 dilutions from 20 µM, read-out: EC50 (CPE inhibition).
Setting [14] is: Calu‐3 cells, 5 µM, drug 24 h before infection, MOI = 0.1, 72 hpi.
Setting [15] is: Vero cells, 5 µM, drug 24 h before infection, MOI = 0.1, 72 hpi.

On to `CC(C)(C)[C@@H]1NC(=O)O[C@@H]2CCC[C@H]2OC/C=C/C(F)(F)c2nc3ccccc3nc2O[C@@H]2C[C@@H](C(=O)N[C@]3(C(=O)NS(=O)(=O)C4(C)CC4)C[C@H]3C(F)F)N(C2)C1=O` [Glecaprevir], for which the inhibition at 5 µM with SARS‐CoV‐2 [1] (setting [11]) and with SARS‐CoV‐2 [2] (setting [12]) was 80 to 90% each time.
Turning to `CN1CCCC(n2nc(Cc3ccc(Cl)cc3)c3ccccc3c2=O)CC1` (centres unmarked) [Azelastine], in the data set with SARS‐CoV‐2 [3], the “Viral load after nasal administration” value was “significant viral load reduction”.
On to `CCC(CC)COC(=O)[C@H](C)N[P@](=O)(OC[C@H]1O[C@@](C#N)(c2ccc3c(N)ncnn23)[C@H](O)[C@@H]1O)Oc1ccccc1` [Remdesivir], for which the EC50 in the data set on SARS‐CoV‐2 [4] (setting [13]) was 0.6 µM. For the same compound, in the data set on SARS‐CoV‐2 [5] (1 µM), the “Inhibitory activity on viral titres” value was “comparable inhibitory activity to 25 µM Azatadine‐Dimaleate”. Besides, the “Suppression of viral NSP12 RNA levels” value with SARS‐CoV‐2 [6] (1 µM) is > 95%. Also, in the data set on SARS‐CoV‐2 [7], the “Improvement in potency in combination vs alone” value was determined as 2.4 fold and the concentration for a half-maximal effect (EC50) came out at 0.6 µM. Also, the “Reduction in viral titers compared to DMSO (significance)” value with SARS‐CoV‐2 [8] is given as “greatest reduction in viral titers”. For the same compound, the Mean weight loss entry in the data set with SARS‐CoV‐2 LIV strain ([…]) is “failed to prevent significant weight loss”. Also, the “Pulmonary viral RNA load (qRT‐PCR) vs vehicle” value in the data set on SARS‐CoV‐2 LIV strain (mouse, in vivo) was “reduction achieved statistical significance”. In the data set on SARS‐CoV‐2 LIV strain, this compound had a Histopathology score of 3. The “Cytotoxicity (cell viability)” value in the data set with Calu‐3 cells is recorded as “No cytotoxic effects”.
Take `CN1CCC(=C2c3ccccc3CCc3cccnc32)CC1` [Azatadine‐Dimaleate]: the inhibition at 5 µM came to 88.5% in the data set on SARS‐CoV‐2 [1] (setting [11]) and 97.6% with SARS‐CoV‐2 [2] (setting [12]). Moreover, the concentration for a half-maximal effect (EC50) in the data set with SARS‐CoV‐2 [4] (setting [13]) and in the data set with SARS‐CoV‐2 [7] was 4 µM in each case. For the same compound, the “Reduction in viral titres” value in the data set on SARS‐CoV‐2 [5] (5 µM) was “approximately 100 fold”; in the data set on SARS‐CoV‐2 [5] (25 µM), ~ 5,000 fold and > 5,000 fold. Besides, the “Reduction of viral NSP12 RNA levels relative to untreated controls” value in the data set on SARS‐CoV‐2 [6] (5 µM) is “approximately 50%”. Moreover, the “Suppression of viral NSP12 RNA levels” value with SARS‐CoV‐2 [6] (25 µM) is > 95%. Moreover, the “Improvement in potency in combination vs alone” value in the data set on SARS‐CoV‐2 [7] is listed as “twofold”. The “Lowering of peak viral titers compared to controls” value in the data set with SARS‐CoV‐2 [8] (48 hpi) came out at 1.4 log10; with SARS‐CoV‐2 [8] (96 hpi) it was 2.33 log10. The “Reduction in viral titers compared to DMSO (significance)” value in the data set on SARS‐CoV‐2 [8] was “significantly reduced viral titers at 72 and 96 hpi”. In data set [9], the “Expression of innate immune response genes (IFNL1, IFNB, IFIT1, ISG15, IL6, CXCL8/IL8)” value is given as “significant reductions in all except CXCL8/IL8”. Moreover, the “Reduction of viral antigen expression in lung (immuno‐stained area)” value is “approximately 50%” with SARS‐CoV‐2 LIV strain (day 4 post infection, morphometric analysis of SARS‐CoV‐2 N antigen) and “halved” in the data set with SARS‐CoV‐2 LIV strain (mouse, in vivo). In addition, the Mean weight loss in the data set with SARS‐CoV‐2 LIV strain (day 4 post infection) was determined as 4%. In the data set with SARS‐CoV‐2 LIV strain (mouse, in vivo), the “Infectious virus in lung by plaque assay vs vehicle” value was “statistical significance reached”. This compound displayed a Histopathology score in the data set with SARS‐CoV‐2 LIV strain of 2. Also, in the data set on Calu‐3 cells, the “Cytotoxicity (cell viability)” value is “no discernible toxicity; also recorded: No cytotoxic effects”.
In the case of `CCN(CC)CCCC(C)Nc1ccnc2cc(Cl)ccc12` (centres unmarked) [Chloroquine], at 5 µM the inhibition with SARS‐CoV‐2 [1] (setting [11]) was 100%. Besides, the “% of CPE inhibition” value in the data set with SARS‐CoV‐2 [2] (setting [14]) is on record as “negligible antiviral activity”.
Take `N#C[C@@]1(c2ccc3c(N)ncnn23)O[C@H](CO)[C@@H](O)[C@H]1O` [GS‐441524]: the inhibition at 5 µM with SARS‐CoV‐2 [1] (Severe acute respiratory syndrome coronavirus 2, Vero) is 80 to 90%; in the data set with SARS‐CoV‐2 [2] (Severe acute respiratory syndrome coronavirus 2, Calu-3) it was 80 to 90%. The EC50 in the data set with SARS‐CoV‐2 [4] (Severe acute respiratory syndrome coronavirus 2, Calu-3, read-out: EC50 (CPE inhibition)) was 0.85 µM.
Take `c1ccc2c(c1)Sc1ccccc1N2CC1CN2CCC1CC2` (centres unmarked) [Mequitazine]: the “% of CPE inhibition” value in the data set with SARS‐CoV‐2 [1] (setting [15]) was “modest efficacy in Vero cells only”. For the same compound, the IC50 in the data set on SARS‐CoV‐2 [10] is 7.28 µM.
For `CS(=O)(=O)O.CS(=O)(=O)O.Cc1cccc(/C=N/Nc2cc(N3CCOCC3)nc(OCCc3ccccn3)n2)c1` [Apilimod (mesylate)], the “% of CPE inhibition” value is listed as 100% with SARS‐CoV‐2 [1] (setting [15]) and “negligible antiviral activity” with SARS‐CoV‐2 [2] (setting [14]).
Turning to `CCN(CCO)CCCC(C)Nc1ccnc2cc(Cl)ccc12` (centres unmarked) [hydroxychloroquine], in the data set on SARS‐CoV‐2 [1] (setting [11]), the inhibition at 5 µM amounted to 100%. For the same compound, the “% of CPE inhibition” value with SARS‐CoV‐2 [2] (setting [14]) is on record as “negligible antiviral activity”.
Turning to `CCOC(=O)N1CCC(=C2c3ccc(Cl)cc3CCc3cccnc32)CC1` [Loratadine], the “% of CPE inhibition” value with SARS‐CoV‐2 [1] (setting [15]) and with SARS‐CoV‐2 [2] (setting [14]) was “negligible activity” in each case.
For `CC(C)n1nc(-c2ccc3oc(N)nc3c2)c2c(N)ncnc21` [Sapanisertib], the inhibition at 5 µM with SARS‐CoV‐2 [1] (setting [11]) and in the data set on SARS‐CoV‐2 [2] (setting [12]) was 80 to 90% throughout.
